Series [1] concerns γ-globin mRNA. Put plainly: γ-globin mRNA in cultured primary human erythroid progenitors (BFU-e), real-time PCR. It is filed as cell-based. The settings on record: for γ-globin mRNA induction: cultured primary human erythroid progenitors, concentrations pharmacologically achievable in humans; for % induction of γ-globin mRNA gene expression: FIG. 4C, HFU-E (burst-forming units-erythroid) cells, Resveratrol 30 μM, desloratadine 50 μM, NSC 50 μM, Benserazine 5 μM; for effect in increasing % of γ-globin mRNA expression: FIG. 6, BFU-e cells, Desloratadine 3 μM, Benserazide 3 μM, NSC5397 0.6 μM. As for the experimental part: Erythroid progenitors were cultured from cord blood CD34+ cells. […] Each compound was tested in three different cultures. […] On day 14, RNA was extracted from cultured erythroid cells, and relative quantification PCR was performed. Briefly, cDNA was generated from equal amounts of total RNA extracted using The PerfectPure RNA Purification Kit (5 Prime Inc Gaithersburg, Md.). Real-time PCR was performed using an ABI 7500 Real-Time PCR system (Applied Biosystems, Foster City, Calif.). Levels of globin mRNA were calculated by the ΔΔCt method. […] GAPDH levels were used for standardization. Western blotting Nuclear extract of K562 cells and 14-day-old BFU-e were analyzed by electrophoresis using 5-24% gradient SDS-polyacrylamide mini-gels (BIORAD Laboratories. Hercules Calif.). Proteins in the gels were transferred to Immobilon-P membranes. Blots were then incubated with BCL11A polyclonal (Novus Biologicals, Littleton Co) or mouse monoclonal (Santa Cruz Biotechnology, Santa Cruz Calif.) antibodies, after washing blots were incubated with anti-rabbit IgG-horseradish peroxidase secondary antibody (ECL, Little Chalfont Buckinghamshire UK). BCL11A bands were detected on the X-ray film using Western Lightning Reagents (Perking Elmer Inc, Waltham, Mass.).
For orientation: In qPCR the cycle at which signal appears reflects the starting amount.

The test system of series [2] is γ-globin mRNA. The series is described as above. It is filed as cell-based.
In series [3] the test system is γ-globin gene promoter. Put plainly: Dual luciferase reporter assay (μLCRβprRlucAγprFluc cassette) in GM979 cells. In kind it is cell-based. The settings on record: Resveratrol at 10 μM, MS-275 at 5 μM; for activity compared with sodium Butyrate: Ambroxol at 1 μM, Desloratadine at 1 μM, Benserazide at 0.03 μM (or a range of 30 nM-5 μM), NSC-95397 at 1 μM, versus sodium Butyrate at 2000 μM; for most active at inducing γ-globin mRNA expression: Benserazide at 0.03 μM. From the text:
Cell-based screen for γ-globin inducing compounds in GM979 cells (Skarpidi, et al. Blood 2000; 96:321-326). Mini-gene construct integrated into GM979 cell genome. The readout is Firefly/Renilla luciferase ratio, and is designed to identify only strong inducers of the γ-globin promoter, and specificity for the γ- vs. the […]γ-globin gene. This second assay confirmed 12/15 candidates.
This assay is […], and consists of a dual-luciferase reporter construct containing the LCR and the […] luciferase and the Aγ-globin promoter linked to firefly luciferase (μLCRβprRlucAγprFluc cassette), stably-transfected into GM979 cells. The orientation of the promoters and μLCR allowed detection only of strong, specific inducers of the γ-globin gene promoter. This assay is also been predictive of in vivo HbF-inducing activity.
The γ-globin-specificity of hits was determined in a secondary assay employing a stably-transfected dual-luciferase reporter construct containing the LCR and the β-globin promoter linked to renilla luciferase and the Aγ-globin promoter linked to firefly luciferase (μLCRβprRlucAγprFluc cassette) (FIG. 2B).

Series [4] concerns red blood cell production. Put plainly: Total hemoglobin and hematocrit in phlebotomized anemic baboons. In kind it is in vivo, baboons (Papio hamadryas anubis). The settings on record: for total hemoglobin levels: MS-275 as. The procedure: (§1) Studies to evaluate pharmacokinetic properties and γ-globin induction were performed in juvenile baboons (Papio hamadryas anubis). Briefly, animals were chronically phlebotomized on a daily basis to achieve stable anemia, maintaining a total hemoglobin level of 7.0 to 7.5 g/dl. Candidate compounds were administered intravenously or orally once daily in single doses for pharmacokinetic studies, or once daily in single doses, 4-5 days per week for 4-5 weeks, for pharmacodynamic studies. […] Levels of γ-globin mRNA expression and globin chain synthesis were assessed in baboons before and during treatment with test compounds. A washout period between administrations of different compounds in the same baboon was provided.
(§2) Chronically catheterized baboons were phlebotomized daily to create chronic anemia with total hemoglobin levels (Hb) between 7.0 to 7.5 g/dl which simulates the expanded erythropoiesis and anemia in sickle cell disease and beta thalassemia. Blood counts were drawn and total Hb (hemoglobin) and reticulocytes were analyzed on a hemavet analyzer. Fetal globin mRNA was analyzed by RT-PCR and proportions for f-cells were analyzed by flow cytometry. […] Desloratidine (0.6 mg/kg) was administered for 4 days following a washout period. Blood counts were obtained at least 3 days/week.
Baboon 1509 (weight 10.9 kg) was phlebotomized to induce anemia and marrow expansion, similar to the hemoglobin disorders.

Series [5] deals with γ-globin. As to the kind of experiment: Fetal globin (γ-globin mRNA, HbF) induction in phlebotomized anemic baboons. It is filed as in vivo, baboons (Papio hamadryas anubis). The settings on record: for fetal globin mRNA: Benserazide 1 or 3 mg/kg in baboon 1509, MS-275 and desloratidine. As for the experimental part: as §1, §2
Baboons HL-25 and HD50 were phlebotomized daily to create anemia with erythroid expansion. When stably anemic, Desloratidine (0.6 mg/kg) was administered orally, fetal hemoglobin (HbF) protein levels were assayed.

In series [6] the test system is γ-globin mRNA. As to the kind of experiment: γ-globin mRNA gene expression in K562 cells. In kind it is cell-based. The note with it: for % induction of γ-globin mRNA gene expression: FIGS. 4A and 4B, Resveratrol 30 μM, desloratadine 50 μM, NSC 50 μM, Benserazine 5 μM.
Series [7] concerns CB BFU-E cells. As to the kind of experiment: CB BFU-E cell proliferation (cells/colony). The procedure:
Fetal globin-inducing activity in human erythroid progenitors was assessed. Human erythroid progenitors were cultured from peripheral blood samples, exposed to the test compounds at varying concentrations and for varying durations and analyzed for globin chain mRNA ratios. Erythroid progenitors were cultured from cord blood CD34+ cells. Briefly, CD34+ cells in the human cord blood were separated using a Ficoll-paque density gradient. CD34+ cells were cultured in H4230 medium containing 2 mM L-glutamine, 1% Methylcellulose in Iscove's Medium, 30% Fetal Bovine Serum, 1% Bovine Serum Albumin and 10^-4 M β-mercaptoethanol. Methylcellulose H4230 medium was supplemented with EPO (0.5 U/ml) and IL-3 (20 ng/ml) to support BFU-e growth. Cells were cultured in […] mini-dishes and incubated in a humidified atmosphere containing 5% CO2, at 37° C. Different concentrations of the test compounds were added at the time the cultures were established. Each compound was tested in three different cultures. BFU-e colonies grown in mini-dishes were counted on day 14 and harvested for mRNA analysis.

Series [8] relates to cell viability. The note with it: cited from earlier work; for DNA fragmentation: fragmentation assays.
Series [9] concerns system A transport of amino acids. The settings on record: cited from earlier work.
Setting [10] is: Ambroxol 0.1-1 uM, Cord Blood progenitors.
Setting [11] is: Ambroxol 0.1-1 uM, Normal progenitors.
Where [12] appears, read: Benserazide 1 or 3 mg/kg in baboon 1509.
Setting [13] is: Benserazide 0.1-0.3 uM, Cord Blood progenitors.
Where [14] appears, read: Benserazide 0.1-0.3 uM, Hemoglobin disorder progenitors.
The mark [15] stands for this setting: Benserazide 0.1-0.3 uM, Normal progenitors.
Where [16] appears, read: MS275 0.5 uM, Cord Blood progenitors.
Setting [17] is: MS275 0.5 uM, Normal progenitors.

“And” between values parts separate entries of the source, which are not always exact repeats. Equal values may be shown once. “Also recorded” adds a separate entry of the source.

For the compound `Nc1c(Br)cc(Br)cc1CN[C@H]1CC[C@H](O)CC1` [Ambroxol, ambroxol], the “fetal globin mRNA, single cultures” value in series [1] (setting [10]) is 302 % of control and 233 % of control and 193 % of control. In addition, the “γ-globin mRNA induction” value in series [1] came to 3 fold. Besides, in series [2] (setting [10]), the “fetal globin mRNA, Means” value was 243 % of control and the “responses (cultures with induced fetal globin mRNA)” value (“responses” for short) is 3/4. Further, in series [2] (setting [11]), the “fetal globin mRNA, Means” value is on record as 224 % of control and the “responses” value was 1/1. Besides, the “activity compared with sodium Butyrate” value in [3] is reported as “significantly more active”.

Turning to `NC(CO)C(=O)NNCc1ccc(O)c(O)c1O` (stereo not shown) [Benserazide, 2-amino-3-hydroxy-N′-(2,3,4-trihydroxybenzyl)propanehydrazide], the “hemoglobin level after treatment” value in series [4] (Baboon 1509, Benserazide 1 mg/kg then 2 mg/kg, by 2 weeks after administration, daily phlebotomy continued, before 7.6 g/dl) came to 8.9 g/dL. In series [4] (Baboon 1509, Benserazide 1 mg/kg then 2 mg/kg, by 2 weeks after administration, daily phlebotomy continued, before 25.6%), this compound came in with a hematocrit after treatment of 28%. In series [4] (setting [12]), the blood cell proliferation entry is “increased blood cell proliferation” and the total hemoglobin levels result is “increased”. For the same compound, the “responses” value in [1] (setting [13]) is 4/5. In [1], the “% induction of γ-globin mRNA gene expression” value (from here on “% induction”) was “most significant % increase”, the “effect in increasing % of γ-globin mRNA expression” value is given as “greatest effect” and the “γ-globin mRNA induction” value was “up to 5 fold”. The “concentrations that induce fetal globin (HbF) mRNA” value in [1] (primary erythroid progenitors in vitro) is 0.3 to 5.0 µM. For the same compound, the “Increase in γ-globin mRNA above baseline” value in series [5] (Baboon 1509, Benserazide oral 2 mg/kg) amounted to 193%. The “fetal globin mRNA” value in series [5] is given as “increased”. For the same compound, the “% induction” value in [6] (K562 cells) is on record as “most significant % increase”. Further, in series [2] (setting [13]), the “fetal globin mRNA, Mean” value was 300 % of control. Besides, in [2] (setting [14]), the “fetal globin mRNA, Mean” value is reported as 212 % of control and the “responses” value is reported as 4/4. Besides, in series [2] (Benserazide 0.1-0.3 uM, Hemoglobin disorder progenitors (subjects)), the “fetal globin mRNA, single subjects” value was 178 % of control and 143 % of control and 282 % of control and 128 % of control and 277.3 % of control. In [2] (setting [15]), the “fetal globin mRNA, Mean” value was 151 % of control and the “responses” value was 3/4. Also, the “fetal globin mRNA, single subjects” value in series [2] (Benserazide 0.1-0.3 uM, Normal progenitors (MB, JS, ABM)) was 115 % of control and 223 % of control and 114 % of control. In addition, in series [3], the “activity compared with sodium Butyrate” value is listed as “significantly more active” and the “most active at inducing γ-globin mRNA expression” value is recorded as “most active”. Besides, the “number of blood cells per colony” value in series [7] (FIG. 8) is listed as “increase the number of blood cells per colony”.

As for `CCCC(=O)O` [Butyrate, butyrate], the concentration required in series [7] (FIG. 8, comparator for the 3 drug candidates) is 200 µM.

Turning to `Nc1ccccc1NC(=O)c1ccc(CNC(=O)OCc2cccnc2)cc1` [MS-275, N-(2-aminophenyl)-4-[N-(pyridin-3-yl-methoxycarbonyl)aminomethyl]benzamide], the total hemoglobin levels entry in series [4] (setting [12]) was “increased”. Besides, the “blood total hemoglobin (Hb) levels compared with positive control ST20 (150 mg/kg)” value in series [4] (FIG. 12B, MS-275 3 mg/m^2 for 4 days and 2 weeks vs ST20 2 and 4 days, desloratadine 0.6 mg/kg for two days) is on record as “to a greater extent”. In series [1] (FIG. 13, MS-275 0.5 μM vs arginine butyrate 100 μM, progenitors from human sources with low or high basal HbF), the “γ-globin induction compared with arginine butyrate” value is reported as “higher activity; also recorded: greater”. The “γ-globin mRNA induction” value in series [1] is “up to 3.7 fold”. Also, the “Increase in γ-globin mRNA above baseline” value in [5] (Baboon HD50, MS-275 oral 0.18 mg/kg, 0.18 mg/kg) amounted to 270%. In series [5], the “fetal globin mRNA” value is “induced”. Also, the “γ-globin mRNA expression in blood compared with positive control ST20 (150 mg/kg)” value in series [5] (FIG. 12A, MS-275 3 mg/m^2 for 4 days and 2 weeks, desloratadine 0.6 mg/kg for two days vs ST20 after 2 or 4 days) is given as “to the same level”. In series [6] (FIG. 10B, K562 cells), the “γ-globin induction, dependence on dose” value is reported as “dose-dependent”. Also, in series [2] (setting [16]), the “fetal globin mRNA, Mean” value was 345 % of control and the “responses” value is reported as 2/2. In addition, in series [2] (setting [17]), the “fetal globin mRNA, Mean” value was 394 % of control and the “responses” value is reported as 5/6. The “fetal globin mRNA, single subjects” value in [2] (MS275 0.5 uM, Normal progenitors (MB, MB, JS, ABM, ABM)) is 680 % of control and 534 % of control and 168 % of control and 463 % of control and 126 % of control. Moreover, in series [3], the “activity compared with sodium Butyrate” value is given as “significantly more active” and the “most active at inducing γ-globin mRNA expression” value is “most active”.

In the case of `O=C1C(SCCO)=C(SCCO)C(=O)c2ccccc21` [NSC-95397], the “% induction” value in series [1] and in series [6] (K562 cells) was “most significant % increase” each time. Moreover, in series [1], the “effect in increasing % of γ-globin mRNA expression” value was “greatest effect”. Besides, the “concentration giving the most γ-globin mRNA expression” value in [6] (FIG. 5, K562 cells, tested Desloratadine 10 μM-100 μM, Resveratrol 5 μM-30 μM, NSC 1 μM-50 μM) was 50 µM. Also, the “activity compared with sodium Butyrate” value in series [3] is listed as “significantly more active”.

With `CCCC(=O)OCC` [butyric acid ethyl ester], in [8], the DNA fragmentation entry is recorded as “reduce DNA fragmentation”.

With `CC(C)C(N)=O` [isobutyramide], the cell viability entry in series [8] (DNA fragmentation assays) is given as “decrease cell viability”.

Consider `O=C(O)COc1ccccc1` [phenoxyacetic acid], for which, in series [9], the “system A transport of amino acids” value is on record as “do not significantly alter”. Moreover, in series [8], the DNA fragmentation entry is listed as “reduce DNA fragmentation”.

Consider `CC(=Cc1ccccc1)C(=O)O` [α-methyl cinnamic acid], for which, in [9], the “system A transport of amino acids” value is given as “do not significantly alter”.
